Measurements: the CheMixHub ionic liquid set

Test: xn = mol fraction of the nth substance listed

C[n+]1ccn(CCCC#N)c1.O=S(=O)([O-])C(F)(F)F + O=C1CCCO1
100 kPa
Settings | electrical conductivity [S/m]
288.15 K, x1 = 0.3003 | 0.53
288.15 K, x1 = 0.6002 | 0.186
288.15 K, x1 = 1 | 0.023
293.15 K, x1 = 0.9004 | 0.069
298.15 K, x1 = 0.9004 | 0.092
303.15 K, x1 = 0.4999 | 0.459
303.15 K, x1 = 0.8002 | 0.179
303.15 K, x1 = 0.9004 | 0.12
308.15 K, x1 = 0.6002 | 0.408
308.15 K, x1 = 1 | 0.083
313.15 K, x1 = 0.3003 | 1.08
313.15 K, x1 = 0.6002 | 0.476
313.15 K, x1 = 0.7001 | 0.372
318.15 K, x1 = 0.8002 | 0.323
318.15 K, x1 = 0.9004 | 0.234
318.15 K, x1 = 1 | 0.134
323.15 K, x1 = 0.3003 | 1.344
323.15 K, x1 = 0.8002 | 0.384
323.15 K, x1 = 0.9004 | 0.281
323.15 K, x1 = 1 | 0.167
333.15 K, x1 = 0.3999 | 1.323
338.15 K, x1 = 0.3003 | 1.79
338.15 K, x1 = 1 | 0.3
343.15 K, x1 = 0.7001 | 0.851

c1c[nH]cn1 + CCCCCC[N+]1(C)CCCC1.O=S(=O)([N-]S(=O)(=O)C(F)(F)F)C(F)(F)F
101.33 kPa, x2 = 0.5
Settings | viscosity [mPa·s]
343.15 K | 11
353.15 K | 8

NCCN1CCNCC1 + CC(=O)[O-].CCCC[n+]1ccn(C)c1 + O
viscosity [mPa·s], 101 kPa
Settings | 298.15 K | 303.15 K | 308.15 K | 313.15 K | 318.15 K | 323.15 K | 328.15 K | 333.15 K
x2 = 0.03479, x1 = 0.0177 | 3.7 | 3.32 | 3.04 | 2.97 | 2.6 | 2.31 | 2.16 | 1.97
x2 = 0.03897, x1 = 0.01333 | 3.73 | 3.62 | 3.32 | 2.99 | 2.61 | 2.41 | 2.31 | 2.11
x2 = 0.04311, x1 = 0.00893 | 3.76 | 3.66 | 3.32 | 3.02 | 2.64 | 2.48 | 2.34 | 2.21

CCCCCCC[n+]1ccn(C)c1.O=S(=O)([N-]S(=O)(=O)C(F)(F)F)C(F)(F)F + O
100 kPa, x2 = 0.1971
Settings | viscosity [mPa·s]
308.15 K | 34.86
318.15 K | 24.33
323.15 K | 20.69
358.15 K | 8.4

CCCn1cc[n+](C)c1C.F[B-](F)(F)F + O
101 kPa
Settings | viscosity [mPa·s]
298.15 K, x2 = 0.1932 | 134.9
303.15 K, x2 = 0.1932 | 103.3
303.15 K, x2 = 0.3944 | 40.4
303.15 K, x2 = 0.4987 | 25.5
308.15 K, x2 = 0.2833 | 53.2
308.15 K, x2 = 0.3944 | 32.95
308.15 K, x2 = 0.5995 | 13.58
318.15 K, x2 = 0.0939 | 78.6
318.15 K, x2 = 0.1932 | 52.1
333.15 K, x2 = 0.0939 | 42.5
333.15 K, x2 = 0.5995 | 6.65
333.15 K, x2 = 0.6985 | 4.37
343.15 K, x2 = 0.0939 | 29.96

CCOP(=O)([O-])OCC.CC[N+]1(C)CCCC1 + CCO
viscosity [mPa·s], 100 kPa
Settings | 293.15 K | 298.15 K | 303.15 K | 308.15 K | 313.15 K | 318.15 K | 323.15 K | 328.15 K | 333.15 K | 338.15 K
x1 = 0.1003 | 3.85 | 3.4 | 2.99 | 2.66 | 2.35 | 2.07 | 1.83 | 1.67 | 1.5 | 1.44
x1 = 0.2001 | 8.78 | 7.84 | 6.91 | 6.2 | 5.58 | 5.06 | 4.67 | 4.27 | 3.94 | 3.62
x1 = 0.3004 | 18.4 | 15.67 | 13.37 | 11.53 | 9.97 | 8.78 | 7.86 | 7.13 | 6.55 | 6.04
x1 = 0.4001 | 39.8 | 29.8 | 24.8 | 20.6 | 17.7 | 15.24 | 13.14 | 11.6 | 10.25 | 9.19
x1 = 0.4997 | 66.9 | 52.7 | 42.3 | 34.5 | 28.5 | 23.8 | 20.3 | 17.4 | 14.99 | 13.17
x1 = 0.6002 | 116.3 | 88.7 | 68.7 | 54.9 | 43.9 | 35.2 | 29.3 | 24.6 | 20.7 | 17.9
x1 = 0.7001 | 180 | 133.7 | 102.4 | 78.8 | 62.3 | 49.5 | 39.7 | 32.8 | 27 | 22.6
x1 = 0.8011 | 265 | 193 | 143.7 | 109.7 | 83 | 66.1 | 51.9 | 42.1 | 34.3 | 28.3
x1 = 0.8985 | 334 | 237 | 173 | 130.1 | 98.4 | 75.6 | 59.5 | 47.3 | 37.8 | 30.9
x1 = 1 | 441 | 307 | 220 | 164 | 121.4 | 92.7 | 73 | 56.2 | 44.4 | 36.3

COCCOCCOC + CCCC[n+]1ccn(C)c1.F[B-](F)(F)F
100 kPa
Settings | viscosity [mPa·s]
283.15 K, x2 = 0.05926 | 2.33
283.15 K, x2 = 0.1017 | 2.93
283.15 K, x2 = 0.193 | 4.788
283.15 K, x2 = 0.2925 | 8.04
283.15 K, x2 = 0.3989 | 14.34
283.15 K, x2 = 0.4972 | 23.78
283.15 K, x2 = 0.5761 | 35.48
283.15 K, x2 = 0.6977 | 62.63
283.15 K, x2 = 0.7915 | 93.5
283.15 K, x2 = 0.8978 | 151.1
283.15 K, x2 = 0.9426 | 187.3
293.15 K, x2 = 0.05427 | 1.895
293.15 K, x2 = 0.1026 | 2.374
293.15 K, x2 = 0.195 | 3.051
293.15 K, x2 = 0.2987 | 6.258
293.15 K, x2 = 0.3891 | 9.33
293.15 K, x2 = 0.4902 | 16.39
293.15 K, x2 = 0.5631 | 22.79
293.15 K, x2 = 0.6762 | 35.31
293.15 K, x2 = 0.7902 | 55.27
293.15 K, x2 = 0.8969 | 86
293.15 K, x2 = 0.9436 | 103.9
303.15 K, x2 = 0.04967 | 1.214
303.15 K, x2 = 0.05867 | 1.133
303.15 K, x2 = 0.1027 | 1.519
303.15 K, x2 = 0.1925 | 2.927
303.15 K, x2 = 0.2857 | 4.426
303.15 K, x2 = 0.4003 | 7.339
303.15 K, x2 = 0.4952 | 10.86
303.15 K, x2 = 0.5755 | 15.38
303.15 K, x2 = 0.6993 | 24.97
303.15 K, x2 = 0.7943 | 35.15
303.15 K, x2 = 0.8999 | 51.8
303.15 K, x2 = 0.9387 | 59.7
313.15 K, x2 = 0.08858 | 1.238
313.15 K, x2 = 0.168 | 1.472
313.15 K, x2 = 0.2583 | 2.155
313.15 K, x2 = 0.3563 | 3.486
313.15 K, x2 = 0.4578 | 5.566
313.15 K, x2 = 0.5473 | 8.36
313.15 K, x2 = 0.6683 | 12.94
313.15 K, x2 = 0.7655 | 18.99
313.15 K, x2 = 0.8894 | 28.19
313.15 K, x2 = 0.9307 | 31.25

c1c[nH]cn1 + CC(C)C[P+](C)(CC(C)C)CC(C)C.Cc1ccc(S(=O)(=O)[O-])cc1
Settings | viscosity [mPa·s]
313.09 K, 101.33 kPa, x2 = 0.5 | 181
